The numbers were not newly measured in patent US20230218693A1, “HEMP SPROUT PRODUCTS AND METHODS FOR PRODUCING SAME” (priority 2020, published 2023), which cites them from elsewhere.

SMILES strings stand for the structures. Where two headings read alike, the source gives them in different places.

For data set [1] the following is noted: result in words.
The conditions of data set [2]: result in words. This is another data set of the same source.
In the next data set the test system is PGE2. As to conditions: result in words.
The target of data set [3] is T1, COX-2 (Homo sapiens, UniProt P35354).
T1 sequence (P35354 18-604): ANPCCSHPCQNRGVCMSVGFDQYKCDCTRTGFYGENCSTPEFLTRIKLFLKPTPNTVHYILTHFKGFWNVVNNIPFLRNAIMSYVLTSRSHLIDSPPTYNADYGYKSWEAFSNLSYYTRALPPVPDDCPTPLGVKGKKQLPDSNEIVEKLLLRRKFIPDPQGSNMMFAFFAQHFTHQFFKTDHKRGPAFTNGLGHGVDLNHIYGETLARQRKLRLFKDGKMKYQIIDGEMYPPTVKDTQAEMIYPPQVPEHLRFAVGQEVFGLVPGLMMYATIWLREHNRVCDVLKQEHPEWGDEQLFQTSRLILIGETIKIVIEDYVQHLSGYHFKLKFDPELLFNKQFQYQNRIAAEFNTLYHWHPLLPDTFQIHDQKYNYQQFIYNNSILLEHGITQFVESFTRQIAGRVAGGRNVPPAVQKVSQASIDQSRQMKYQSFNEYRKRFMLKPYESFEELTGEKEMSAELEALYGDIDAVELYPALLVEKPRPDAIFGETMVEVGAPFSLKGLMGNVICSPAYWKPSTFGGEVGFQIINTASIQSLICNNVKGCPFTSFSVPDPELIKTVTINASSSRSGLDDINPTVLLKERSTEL
More on the design: endogenous in cells; host or cells: freshly isolated human monocytes. The conditions noted are these: COX-2, monocytes.

Data set [4] has as its target T2, 5-LO (Homo sapiens, UniProt P09917).
T2 sequence (P09917 1-674): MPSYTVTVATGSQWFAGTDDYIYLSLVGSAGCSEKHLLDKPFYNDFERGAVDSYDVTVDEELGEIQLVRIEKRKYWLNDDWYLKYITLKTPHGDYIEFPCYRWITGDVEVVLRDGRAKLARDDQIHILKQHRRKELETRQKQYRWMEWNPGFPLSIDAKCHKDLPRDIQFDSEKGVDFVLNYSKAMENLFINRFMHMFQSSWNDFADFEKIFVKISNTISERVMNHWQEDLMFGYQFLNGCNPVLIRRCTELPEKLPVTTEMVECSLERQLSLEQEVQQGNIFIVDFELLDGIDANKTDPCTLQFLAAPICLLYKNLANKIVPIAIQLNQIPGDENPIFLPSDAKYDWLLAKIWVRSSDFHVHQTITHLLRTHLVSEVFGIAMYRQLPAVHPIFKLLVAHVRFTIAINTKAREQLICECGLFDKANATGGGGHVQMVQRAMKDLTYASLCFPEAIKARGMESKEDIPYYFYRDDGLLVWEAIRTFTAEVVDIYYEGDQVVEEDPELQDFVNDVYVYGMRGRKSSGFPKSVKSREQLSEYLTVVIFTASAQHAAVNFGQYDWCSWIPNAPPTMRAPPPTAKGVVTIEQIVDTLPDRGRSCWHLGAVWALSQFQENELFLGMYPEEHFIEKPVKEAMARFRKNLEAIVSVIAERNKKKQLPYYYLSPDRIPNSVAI
More on the design: endogenous in cells; host or cells: freshly isolated human neutrophils (PMNL). As to conditions: PMNL, A23187 + AA.

For data set [5], the target named is T3, COX-1 (Homo sapiens, UniProt P23219).
T3 construct: endogenous in cells; host or cells: freshly isolated human blood cells (platelets, according to the assay name)
As to conditions: COX-1, platelets.

The test system of data set [6] is COX-1.
The target of data set [7] is T1, COX-2.
Another data set deals with T4, mPGES-1 (Homo sapiens, UniProt O14684).
T4 sequence (O14684 1-152): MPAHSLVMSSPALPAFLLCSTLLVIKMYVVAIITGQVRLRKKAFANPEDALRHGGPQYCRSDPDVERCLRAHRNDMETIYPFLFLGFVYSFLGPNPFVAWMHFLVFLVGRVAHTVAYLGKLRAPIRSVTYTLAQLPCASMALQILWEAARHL

Another data set has as its target T5, cPLA2 (Homo sapiens, UniProt P47712).
T5 sequence (P47712 1-749): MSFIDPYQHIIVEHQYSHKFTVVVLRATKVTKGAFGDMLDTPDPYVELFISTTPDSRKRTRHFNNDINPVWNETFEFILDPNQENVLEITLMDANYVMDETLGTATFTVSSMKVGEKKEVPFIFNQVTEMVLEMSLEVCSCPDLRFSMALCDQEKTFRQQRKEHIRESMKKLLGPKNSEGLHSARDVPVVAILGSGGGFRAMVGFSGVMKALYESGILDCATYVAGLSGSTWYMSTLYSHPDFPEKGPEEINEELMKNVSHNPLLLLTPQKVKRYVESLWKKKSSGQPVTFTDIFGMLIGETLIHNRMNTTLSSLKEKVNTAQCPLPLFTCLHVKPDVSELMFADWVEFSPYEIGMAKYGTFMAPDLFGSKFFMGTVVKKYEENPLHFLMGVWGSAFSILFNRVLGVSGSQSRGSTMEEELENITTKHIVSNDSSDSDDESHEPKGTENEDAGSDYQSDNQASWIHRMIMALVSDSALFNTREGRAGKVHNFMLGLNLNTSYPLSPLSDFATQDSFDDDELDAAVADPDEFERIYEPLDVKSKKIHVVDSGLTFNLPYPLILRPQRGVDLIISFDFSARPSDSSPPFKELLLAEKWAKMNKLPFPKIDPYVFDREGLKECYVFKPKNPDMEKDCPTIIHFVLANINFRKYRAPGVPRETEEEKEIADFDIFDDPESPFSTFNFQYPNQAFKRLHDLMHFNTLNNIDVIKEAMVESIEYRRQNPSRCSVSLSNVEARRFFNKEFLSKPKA
The conditions noted are these: cPLA2, cell-free.

For data set [8], the system named is freshly isolated human blood cells. The conditions noted are these: for Effect on cell viability: human cells.
Data set [9] concerns the target T2, 5-LO. More on the design: endogenous in cells; host or cells: freshly isolated human neutrophils (PMNL). As to conditions: PMNL.
The target in data set [10] is T2, 5-LO. As to conditions: 5-LO cell-free.
Data set [11] deals with HepG2 human hepatic carcinoma cells. As to conditions: dose-dependently up to 500 μM.

T3 sequence (P23219 24-599): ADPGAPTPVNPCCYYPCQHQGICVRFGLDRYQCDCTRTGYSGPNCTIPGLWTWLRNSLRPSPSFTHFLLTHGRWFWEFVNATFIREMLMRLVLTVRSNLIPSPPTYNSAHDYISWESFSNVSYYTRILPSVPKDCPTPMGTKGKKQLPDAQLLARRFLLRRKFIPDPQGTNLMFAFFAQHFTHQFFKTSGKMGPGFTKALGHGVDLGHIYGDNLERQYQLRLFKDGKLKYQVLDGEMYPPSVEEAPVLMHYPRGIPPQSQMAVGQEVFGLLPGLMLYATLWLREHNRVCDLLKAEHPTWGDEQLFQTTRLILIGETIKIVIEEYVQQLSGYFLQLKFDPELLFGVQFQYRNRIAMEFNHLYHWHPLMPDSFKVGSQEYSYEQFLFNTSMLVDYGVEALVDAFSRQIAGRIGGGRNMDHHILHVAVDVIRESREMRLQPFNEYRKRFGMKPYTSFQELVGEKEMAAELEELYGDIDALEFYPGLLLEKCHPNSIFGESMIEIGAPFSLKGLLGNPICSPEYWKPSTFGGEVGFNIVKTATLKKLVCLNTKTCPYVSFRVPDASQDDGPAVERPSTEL

In the case of `O=C(/C=C/c1ccc(O)c(O)c1)NCCc1ccc(O)cc1` [caffeoyltyramine], in [1], the “Inhibition of human LDL oxidation” value is reported as “prominent inhibition of human LDL oxidation”. In data set [2], the “Antioxidant activity against DPPH radicals” value is recorded as “demonstrated antioxidant activity against DPPH radicals”.
The % inhibition is the relative decrease from the control value, in per cent. In general, IC50 refers to the point on the concentration scale where inhibition reaches its midpoint. For the compound `COc1cc(-c2cc(=O)c3c(O)c(C/C=C(\C)CCC=C(C)C)c(O)cc3o2)ccc1O` [CFA, Cannflavin A], the “Effect in DPPH assay (antioxidant activity)” value was “No effect”. Also, in the data set on PGE2, the “Suppression of PGE2” value is given as “suppressed PGE2”. Also, the “% inhibition at 10 μM” value at COX-2 [3] (10 μM) was 56 ± 8%. For the same compound, the 50% inhibitory concentration (IC50) at COX-2 [3] (read-out: CFA(1) IC50) was 8800 nM. For the same compound, the “% inhibition at 10 μM” value on 5-LO [4] (10 μM) is recorded as 91 ± 1%. Also, the IC50 at 5-LO [4] (read-out: CFA(1) IC50) was 1600 nM. For the same compound, the “% inhibition at 10 μM” value at COX-1 [5] (10 μM, vs vehicle (0.1% DMSO)) is on record as 26 ± 2%. In addition, at COX-1 [5] (added 15 min prior induction, read-out: CFA(1) IC50), the IC50 is greater than 10000 nM. Moreover, the “% inhibition at 10 μM” value with COX-1 [6] (COX-1, cell-free, 10 μM) is on record as 36 ± 2%. Further, the IC50 in the data set with COX-1 [6] (COX-1, cell-free, read-out: CFA(1) IC50) was greater than 10000 nM. Moreover, the “Inhibition of COX-1” value in the data set on COX-1 [6] (result in words) is given as “did not significantly inhibit COX-1”. Moreover, the “% inhibition at 10 μM” value at COX-2 [7] (COX-2, cell-free, 10 μM) was 35 ± 12%. The IC50 at COX-2 [7] (COX-2, cell-free, read-out: CFA(1) IC50) was greater than 10000 nM. For the same compound, the “Inhibition of COX-2” value on COX-2 [7] (result in words) is listed as “did not significantly inhibit COX-2”. The “% inhibition at 10 μM” value on mPGES-1 (mPGES-1, cell-free, 10 μM) is on record as 90 ± 1%. For the same compound, the IC50 on mPGES-1 (mPGES-1, cell-free, read-out: CFA(1) IC50) was 1800 nM. The “Inhibition of mPGES-1” value at mPGES-1 (result in words) is recorded as “directly inhibited mPGES-1”. Further, the “% inhibition at 10 μM” value on cPLA2 (10 μM) is given as 26 ± 8%. The IC50 on cPLA2 (read-out: CFA(1) IC50) was greater than 10000 nM. Also, in data set [8], the “Effect on cell viability” value was “no effect”. Further, the “Effect on cell viability” value in data set [8] (listed as cannflavin A) is given as “no deleterious effects on human cell viability”. Besides, the Cytotoxicity result in data set [8] (result in words) is given as “no evidence of cytotoxicity”. The “Effect in DPPH assay (antioxidant activity)” value (listed as cannflavin A) was “did not demonstrate innate antioxidant activity”. Also, the “% inhibition at 10 μM” value on 5-LO [9] (A23187, 10 μM) was 98 ± 2%. Further, at 5-LO [9] (A23187, read-out: CFA(1) IC50), the IC50 is 2400 nM. Besides, the “% inhibition at 10 μM” value at 5-LO [10] (10 μM) is 88 ± 3%. The IC50 on 5-LO [10] (read-out: CFA(1) IC50) is 900 nM.
Turning to `CC(c1cc2ccccc2s1)N(O)C(N)=O` (stereo not shown) [Zileuton, reference compound], the “Reference control, % inhibition at indic. conc.” value on 5-LO [10] (3 μM) was “Zileuton (3 μM), 80 ± 4%”.
For the compound `COc1ccc2c(c1)c(CC(=O)O)c(C)n2C(=O)c1ccc(Cl)cc1` [Indomethacin, reference compound], the “Reference control, % inhibition at indic. conc.” value with COX-1 [6] (COX-1, cell-free, 20 μM) was “Indomethacin (20 μM), 81 ± 8%”.
As for `O=C(NCCc1ccc(O)cc1)C1=Cc2cc(O)c(O)cc2[C@H](c2ccc(O)c(O)c2)[C@H]1C(=O)NCCc1ccc(O)cc1` [cannabisin B], the “Inhibition of human LDL oxidation” value in data set [1] is “prominent inhibition of human LDL oxidation”. Also, the “Antioxidant activity against DPPH radicals” value in data set [2] is listed as “demonstrated antioxidant activity against DPPH radicals”. The “Antiproliferative effects in HepG2 cells” value in data set [11] is recorded as “produced antiproliferative effects”.
